Experimental findings from PubChem BioAssay (NCI) are described below.

Holding throughout (test): NCI anticancer screen, dose series, 48 h
Assay [1] has as its system SF-539 CNS.
Assay [2] relates to OVCAR-8 ovarian.
Assay [3] has as its system UACC-257 melanoma.
In assay [4] the test system is K-562 leukemia.
Assay [5] relates to UACC-62 melanoma.
In assay [6] the test system is PC-3 prostate.
For assay [7], the system named is DU-145 prostate.
The test system of assay [8] is CAKI-1 renal.
Assay [9] deals with KM12 colon.
In assay [10] the test system is 786-0 renal.
In assay [11] the test system is OVCAR-3 ovarian.
For assay [12], the system named is RPMI-8226 leukemia.
Assay [13] relates to CCRF-CEM leukemia.
Assay [14] has as its system MALME-3M melanoma.
Assay [15] deals with OVCAR-4 ovarian.
Assay [16] has as its system HCT-116 colon.
The subject of assay [17] is SK-MEL-28 melanoma.
Assay [18] relates to HCT-15 colon.
Assay [19] has as its system RXF 393 renal.

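Dose response: 5 concentrations. Exposure: 48 h. Format: 96-well plates. Endpoint: linear interpolation; highest concentration if not reached. GI50: concentration for 50% inhibition of growth. Definition used: TGI = concentration required for complete inhibition of growth.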 Bounds are passed on as bounds.

Turning to `NC1CC(=O)c2c(Cl)sc(Cl)c21` (centres undefined), the TGI in assay [1] worked out at 8.85 µM; in assay [2], 20 µM; in assay [3] it was 7.27 µM; in assay [4] it was 75 µM; in assay [5], 7.78 µM; in assay [6], 18 µM. Moreover, the TGI in assay [7] amounted to 16 µM; in assay [8], 6.1 µM; in assay [9] it was 12.8 µM; in [10], 2.87 µM; in [11], 24 µM; in [12] it was 7.76 µM. In addition, the TGI in assay [13] stood at 2.94 µM; in assay [14], 4.66 µM; in assay [15], 16 µM; in [16] it was 4.49 µM; in assay [17], 4 µM; in [18], 3.94 µM. In assay [19], this compound gave a TGI of 2.95 µM.
As to `CC(C)[Si](OC1=C(C(=O)Nc2ccccc2Cl)CCCCC1)(C(C)C)C(C)C`, the TGI in assay [1], in [2], in assay [3], in assay [4], in [5] and in assay [6] was more than 100 µM each time. Moreover, the TGI in [7], in [8], in assay [9], in assay [10], in [11] and in assay [12] was more than 100 µM in each case. Moreover, the TGI in assay [13] was 12.3 µM; in assay [14], more than 100 µM; in [15], more than 100 µM; in [16] it was more than 100 µM; in assay [17], more than 100 µM; in assay [18], more than 100 µM. This compound gave a TGI in [19] of more than 100 µM.
As to `C=C1C[C@@H](O)[C@@H](Br)C(C)(C)[C@]12CCC(C)(Cl)C(Br)C2` (some centres undefined), the TGI in assay [1] is 32.3 µM; in assay [2], more than 100 µM; in [3], more than 70.7 µM; in assay [4] it was more than 100 µM; in assay [5], more than 100 µM; in [6] it was 8.17 µM. Moreover, the TGI in [7] is more than 100 µM; in [8], more than 90.4 µM; in assay [9], 3.8 µM; in [10], more than 78.2 µM; in [11], 37.4 µM; in [12], more than 100 µM. In addition, the TGI is more than 100 µM in [13]; 59.4 µM in assay [14]; more than 100 µM in assay [15]; more than 100 µM in assay [16]; more than 100 µM in [17]; more than 100 µM in [18]. Moreover, the TGI in assay [19] was more than 76.1 µM. In addition, in assay [9], the GI50 is 0.793 µM.
`NS(=O)(=O)c1ccc(NNc2c3ccccc3nc3ccccc23)cc1`: the TGI in assay [1] amounted to 17.2 µM; in assay [2] it was 16.6 µM; in [3] it was 18 µM; in [4] it was 19.9 µM; in assay [5] it was 17.2 µM; in assay [6], 16.1 µM. Moreover, the TGI was determined as 23.6 µM in assay [7]; 18.9 µM in assay [8]; 16.5 µM in assay [9]; 17.4 µM in [10]; 15 µM in assay [11]; 21.6 µM in assay [12]. The TGI in assay [13] is 18.5 µM; in assay [14], 15.9 µM; in [15], 17.2 µM; in assay [16], 15.5 µM; in assay [17], 17.1 µM; in assay [18] it was 15.5 µM. The compound further showed a TGI in assay [19] of 23 µM.
In the case of `COc1ccccc1C(C1=C(O)COC1=O)c1cc2c(cc1OC(C)=O)OCO2` (centres undefined), the TGI in assay [1], in assay [2], in assay [3], in assay [4], in [5] and in assay [6] was more than 100 µM throughout. Besides, the TGI in assay [7], in assay [8], in [9], in assay [10], in assay [11] and in [12] was more than 100 µM throughout. The TGI in assay [13], in assay [14], in assay [15], in assay [16], in assay [17] and in assay [18] was more than 100 µM each time. This compound yielded a TGI in assay [19] of more than 100 µM.
With `CC1(C)C=C(/C=N/Nc2ccc([N+](=O)[O-])cc2)C(C#N)=C(O)C1(C#N)C#N`, the TGI in assay [1], in assay [2], in assay [3], in [4], in assay [5] and in [6] was more than 100 µM in each case. In addition, the TGI in [7], in [8], in assay [9], in [10], in assay [11] and in [12] was more than 100 µM throughout. Also, the TGI in assay [13], in assay [14], in assay [15], in assay [16], in assay [17] and in assay [18] was more than 100 µM throughout. This compound displayed a TGI in [19] of more than 100 µM.
As for `CCOC(=O)C(Cc1c2ccccc2cc2ccccc12)(NC(C)=O)C(=O)OCC`, the TGI was more than 100 µM in [1]; more than 100 µM in assay [2]; more than 100 µM in assay [3]; more than 100 µM in assay [4]; more than 80.9 µM in [5]; more than 100 µM in assay [6]. Besides, the TGI in [7], in assay [8], in [9], in [10], in assay [11] and in assay [12] was more than 100 µM in each case. Also, the TGI in [13], in assay [14], in assay [15], in assay [16], in [17] and in assay [18] was more than 100 µM throughout. In assay [19], the TGI was more than 100 µM.
